ChEMBL document CHEMBL5500406, “Discovery of Novel Proteolysis-Targeting Chimera Molecules as Degraders of Programmed Cell Death-Ligand 1 for Breast Cancer Therapy” (J Med Chem, 2024)
Activity calls are given as the source filed them. The calls are words filed in the database; no cut-off is given here.

Molecular target: Protein cereblon/Programmed cell death 1 ligand 1 (Mus musculus) (UniProt Q9EP73+Q8C7D2)
Assay: PROTAC activity at CRBN/PD-L1 in mouse 4T1 cells assessed as protein degradation at 1.25 to 20 uM incubated for 24 hrs by Western blot analysis
Assay type: cell-based
Details: dose 1.25-20 µM

Chain of Protein cereblon/Programmed cell death 1 ligand 1 (Mus musculus) (Q8C7D2 whole entry partner): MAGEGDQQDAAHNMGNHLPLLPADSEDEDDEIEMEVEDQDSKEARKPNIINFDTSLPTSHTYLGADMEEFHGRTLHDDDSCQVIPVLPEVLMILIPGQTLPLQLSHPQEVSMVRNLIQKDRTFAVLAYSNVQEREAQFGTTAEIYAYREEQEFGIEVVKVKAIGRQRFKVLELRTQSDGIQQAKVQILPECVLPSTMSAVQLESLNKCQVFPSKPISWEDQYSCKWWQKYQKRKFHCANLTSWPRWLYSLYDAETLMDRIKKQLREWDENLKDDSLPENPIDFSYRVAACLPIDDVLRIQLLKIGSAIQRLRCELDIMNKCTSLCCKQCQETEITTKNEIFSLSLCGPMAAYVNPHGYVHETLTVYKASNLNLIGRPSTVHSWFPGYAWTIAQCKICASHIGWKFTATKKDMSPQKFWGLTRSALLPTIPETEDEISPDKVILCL
Chain of Protein cereblon/Programmed cell death 1 ligand 1 (Mus musculus) (Q9EP73 19-290 limits assumed): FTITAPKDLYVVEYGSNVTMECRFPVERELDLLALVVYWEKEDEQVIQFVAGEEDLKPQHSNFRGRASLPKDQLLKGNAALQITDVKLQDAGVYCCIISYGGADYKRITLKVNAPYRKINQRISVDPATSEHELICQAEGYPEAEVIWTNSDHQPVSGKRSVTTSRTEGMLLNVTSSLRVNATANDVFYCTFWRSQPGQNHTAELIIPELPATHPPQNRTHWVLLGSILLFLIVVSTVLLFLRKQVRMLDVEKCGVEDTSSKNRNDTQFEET

## COc1nc(OCc2cccc(-c3ccccc3)c2C)ccc1CNCCNC(=O)CCCCCCNC(=O)COc1ccc(C2CCC(=O)NC2=O)cc1 (stereo unspecified)
  Activity: Active
